One block for each compound: values may come before it. Activity calls are given as the source filed them.
Key:
[1] = molecular target: Tyrosine-protein phosphatase non-receptor type 11 (Homo sapiens, UniProt Q06124); test: SHP2 phosphatase inhibition, dose response, selectivity assay for STEP inhibitor project, biochemical (AID 602367); assay type: functional; details: read-out: IC50_Mean
[2] = molecular target: T1, Low molecular weight phosphotyrosine protein phosphatase (Homo sapiens, UniProt P24666); assay type: functional; details: read-out: IC50_Mean
T1 sequence (P24666 whole entry): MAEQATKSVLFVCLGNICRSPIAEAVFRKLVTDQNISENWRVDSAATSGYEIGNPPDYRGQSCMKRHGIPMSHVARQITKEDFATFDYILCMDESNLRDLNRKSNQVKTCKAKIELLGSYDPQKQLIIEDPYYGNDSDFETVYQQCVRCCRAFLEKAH

[3] = molecular target: T2, Tyrosine-protein phosphatase non-receptor type 22 (Homo sapiens, UniProt Q9Y2R2); test: PTPN22 phosphatase inhibition, dose response, selectivity assay for STEP inhibitor project, biochemical (AID 624241); assay type: functional
T2 sequence (Q9Y2R2 whole entry): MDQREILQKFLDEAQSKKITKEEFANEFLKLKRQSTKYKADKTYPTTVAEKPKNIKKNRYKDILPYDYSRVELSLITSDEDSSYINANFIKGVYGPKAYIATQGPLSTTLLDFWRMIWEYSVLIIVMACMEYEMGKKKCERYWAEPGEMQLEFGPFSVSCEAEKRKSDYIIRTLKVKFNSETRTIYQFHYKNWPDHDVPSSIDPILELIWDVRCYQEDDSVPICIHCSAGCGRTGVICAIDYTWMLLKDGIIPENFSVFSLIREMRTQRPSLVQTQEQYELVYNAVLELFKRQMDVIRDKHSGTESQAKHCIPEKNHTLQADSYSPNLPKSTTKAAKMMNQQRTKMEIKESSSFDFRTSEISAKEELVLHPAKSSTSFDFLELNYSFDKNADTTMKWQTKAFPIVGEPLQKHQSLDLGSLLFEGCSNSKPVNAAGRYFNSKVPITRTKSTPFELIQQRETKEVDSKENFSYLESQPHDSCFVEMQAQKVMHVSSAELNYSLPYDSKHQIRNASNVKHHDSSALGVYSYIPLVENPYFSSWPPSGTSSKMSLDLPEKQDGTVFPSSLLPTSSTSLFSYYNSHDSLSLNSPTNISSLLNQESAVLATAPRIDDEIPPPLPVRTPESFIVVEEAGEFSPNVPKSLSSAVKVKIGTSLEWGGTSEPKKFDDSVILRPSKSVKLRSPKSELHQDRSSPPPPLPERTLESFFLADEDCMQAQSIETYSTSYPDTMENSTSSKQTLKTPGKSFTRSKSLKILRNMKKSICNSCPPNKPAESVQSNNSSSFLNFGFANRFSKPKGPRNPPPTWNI

[4] = molecular target: Dual specificity protein phosphatase 3 (Homo sapiens, UniProt P51452); test: VHR phosphatase inhibition, dose response, selectivity assay for STEP inhibitor project, biochemical (AID 602374); assay type: functional; details: read-out: IC50_Mean
Dual specificity protein phosphatase 3, sequence (P51452 whole entry): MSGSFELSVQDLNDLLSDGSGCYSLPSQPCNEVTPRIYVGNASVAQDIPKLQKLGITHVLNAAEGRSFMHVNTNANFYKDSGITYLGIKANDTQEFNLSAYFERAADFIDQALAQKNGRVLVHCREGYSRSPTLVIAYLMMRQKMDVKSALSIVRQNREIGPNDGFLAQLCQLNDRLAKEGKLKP

[5] = molecular target: T1, Low molecular weight phosphotyrosine protein phosphatase; assay type: functional; details: read-out: IC50_Mean; remark: listed apart in the source
[6] = molecular target: Tyrosine-protein phosphatase non-receptor type 5 (Homo sapiens, UniProt P54829); test: STEP phosphatase inhibitors, confirmation, biochemical, fluorescence intensity, uHTS hits (AID 602372); assay type: functional; details: read-out: IC50_Mean
Tyrosine-protein phosphatase non-receptor type 5, sequence (P54829 whole entry): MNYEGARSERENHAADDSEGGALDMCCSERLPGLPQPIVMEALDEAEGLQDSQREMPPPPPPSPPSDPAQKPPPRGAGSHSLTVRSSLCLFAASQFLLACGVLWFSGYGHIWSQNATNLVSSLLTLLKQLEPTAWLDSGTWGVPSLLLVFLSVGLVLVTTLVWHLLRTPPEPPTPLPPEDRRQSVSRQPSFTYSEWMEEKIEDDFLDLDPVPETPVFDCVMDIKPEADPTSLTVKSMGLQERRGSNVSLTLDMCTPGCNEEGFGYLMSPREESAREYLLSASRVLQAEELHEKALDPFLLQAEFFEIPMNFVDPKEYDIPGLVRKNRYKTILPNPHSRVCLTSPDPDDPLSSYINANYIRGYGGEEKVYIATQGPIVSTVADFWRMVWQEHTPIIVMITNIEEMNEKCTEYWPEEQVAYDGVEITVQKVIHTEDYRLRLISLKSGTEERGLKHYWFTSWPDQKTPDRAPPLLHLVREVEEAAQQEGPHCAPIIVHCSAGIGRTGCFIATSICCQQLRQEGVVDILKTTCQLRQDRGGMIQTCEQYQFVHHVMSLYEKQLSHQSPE

HeLa = test: HeLa cell cytotoxicity, dose response, cytotoxicity control, ATP luminescence, cherry-pick samples (AID 687004); assay type: functional, cell-based; details: Homo sapiens
Cryptococcus neoformans = test: Cryptococcus growth inhibition by alamar blue – cell lysis, cherry-picks, replicate tests, mechanism study for C. neoformans antifungal project, dose response (AID 686999); assay type: functional, organism-based
[7] = IGROV1 ovarian cancer cell cytotoxicity, dose response, PAX8 inhibitor project, plate reader, dry powder samples (AID 743043); assay type: functional, cell-based; details: IGROV-1
[8] = inhibitors of PGC1a acetylation in cells, dose response, cell-based, cherry-picked samples (AID 720514); assay type: functional;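 further: potency may reflect raised or lowered acetylation signal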
[9] = NIH:OVCAR-3 ovarian cancer cell cytotoxicity, dose response, PAX8 inhibitor project, plate reader, dry powder samples (AID 743044); assay type: functional, cell-based
[10] = P. falciparum Dd2 growth inhibitors, dose response, SYBR Green, cherry-picked samples (AID 1159567); assay type: functional, cell-based
[11] = HepG2 cell cytotoxicity, dose response, cytotoxicity control, cherry-picked samples (AID 1159577); assay type: functional, cell-based
Paired box protein Pax-8 = Paired box protein Pax-8 (Homo sapiens, UniProt Q06710); test: inhibitors of PAX8-driven TPO luciferase reporter, dose response, RMG-I cells, cherry-pick (AID 687027); assay type: functional, cell-based;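 further: luciferase reporter driven by Pax8 target thyroperoxidase promoter measured by SteadyGlo luminescence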
Paired box protein Pax-8, sequence (Q06710 whole entry): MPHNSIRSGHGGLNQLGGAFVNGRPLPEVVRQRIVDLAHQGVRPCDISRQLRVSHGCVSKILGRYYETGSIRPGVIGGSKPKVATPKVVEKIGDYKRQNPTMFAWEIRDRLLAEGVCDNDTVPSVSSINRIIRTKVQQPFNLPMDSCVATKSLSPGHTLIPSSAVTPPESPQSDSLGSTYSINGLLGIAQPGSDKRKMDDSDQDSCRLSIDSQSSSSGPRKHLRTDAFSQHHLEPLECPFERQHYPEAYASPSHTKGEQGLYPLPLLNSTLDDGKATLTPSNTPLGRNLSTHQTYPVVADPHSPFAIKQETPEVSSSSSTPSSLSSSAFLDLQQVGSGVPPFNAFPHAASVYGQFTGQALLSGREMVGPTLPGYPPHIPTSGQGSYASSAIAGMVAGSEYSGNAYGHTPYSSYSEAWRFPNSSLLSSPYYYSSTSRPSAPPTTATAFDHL

[12] = inhibitors of TNFa-stimulated NF-kB luciferase reporter, dose response, selectivity assay for EBV LMP1 NF-kB inhibitor project, HEK293 LMP1 reporter cells, dry powder, set 2 (AID 624369); assay type: functional
[13] = inhibitors of LMP1-driven NF-kB reporter, dose response, cell-based, EBV LMP1, luciferase, dry powder, set 2 (AID 624361); assay type: functional
[14] = T. cruzi growth inhibition in host cells, dose response, cell-based, plate reader, dry powder, set 2 (AID 652275); assay type: functional
[15] = molecular target: T3, High affinity choline transporter 1 (Homo sapiens, UniProt Q9GZV3); test: CHT choline uptake inhibitors, dose response, cell-based, HEK-293 hCHT, [3H]-choline uptake (AID 652177); assay type: functional
T3 sequence (Q9GZV3 whole entry): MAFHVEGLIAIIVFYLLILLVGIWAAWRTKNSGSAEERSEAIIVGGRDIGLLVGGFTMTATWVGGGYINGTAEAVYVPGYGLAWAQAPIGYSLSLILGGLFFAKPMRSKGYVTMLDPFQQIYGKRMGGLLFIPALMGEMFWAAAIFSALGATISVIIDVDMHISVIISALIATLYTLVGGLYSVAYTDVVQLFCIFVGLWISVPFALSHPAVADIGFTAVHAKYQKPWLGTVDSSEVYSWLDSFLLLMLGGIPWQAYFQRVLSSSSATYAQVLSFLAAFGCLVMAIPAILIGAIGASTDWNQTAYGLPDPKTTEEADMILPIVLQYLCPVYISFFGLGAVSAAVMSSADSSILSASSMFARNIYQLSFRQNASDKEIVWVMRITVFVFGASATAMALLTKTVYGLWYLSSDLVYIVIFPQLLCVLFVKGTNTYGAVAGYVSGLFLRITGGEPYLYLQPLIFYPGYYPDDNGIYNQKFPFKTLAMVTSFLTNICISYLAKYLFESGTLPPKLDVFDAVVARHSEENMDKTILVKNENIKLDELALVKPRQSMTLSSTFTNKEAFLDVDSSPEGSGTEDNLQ

[16] = molecular target: T4, DNA repair protein RAD52 homolog (Homo sapiens, UniProt P43351); assay type: functional, biochemical
T4 sequence (P43351 whole entry): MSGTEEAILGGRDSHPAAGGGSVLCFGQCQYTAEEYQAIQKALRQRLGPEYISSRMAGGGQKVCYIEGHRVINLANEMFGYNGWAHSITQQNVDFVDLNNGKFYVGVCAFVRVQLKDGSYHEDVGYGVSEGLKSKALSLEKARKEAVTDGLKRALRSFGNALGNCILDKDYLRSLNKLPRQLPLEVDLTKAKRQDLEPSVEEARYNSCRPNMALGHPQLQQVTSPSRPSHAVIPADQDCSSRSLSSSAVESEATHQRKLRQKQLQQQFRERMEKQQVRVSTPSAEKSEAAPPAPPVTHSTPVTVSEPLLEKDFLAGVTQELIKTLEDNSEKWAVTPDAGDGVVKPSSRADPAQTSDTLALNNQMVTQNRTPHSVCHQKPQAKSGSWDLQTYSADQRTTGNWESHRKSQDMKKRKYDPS

[17] = HepG2 cell cytotoxicity, dose response, cytotoxicity control, ATP luminescence, cherry-pick, activator set 2 (AID 1053143); assay type: functional, cell-based

IC50 [1]: 2.01 µM (active)
IC50 [2]: 14.2 µM (active)
IC50 [3]: > 100 µM (inactive)
IC50 [4]: 2.38 µM (active)
IC50 [5]: 15.9 µM (active)
IC50 [6]: 12.8 µM (active)
SMILES: C/C(=N\NC(=O)c1ccccc1O)c1ccc(NC(=O)Cc2ccccc2)cc1

SMILES: COC(=O)C1=C(C)N(Cc2ccc(F)cc2)C(=S)NC1c1ccc(F)cc1 (stereo not given)
AC50 (HeLa): > 52 µM (inactive)
AC50 (Cryptococcus neoformans): 56.1 µM (active)

SMILES: O=C(Nc1ccc(C(F)(F)F)cc1)N1C[C@@H]2N[C@H](C1)[C@@H]2c1ccc(/C=C/c2ccccc2)cc1
AC50 [7]: 50.8 µM (active)
AC50 [8]: 1.57 µM (active)
AC50 [9]: 36.8 µM (active)
AC50 [10]: 2.93 µM (active)
AC50 [11]: 2.56 µM (active)
AC50 (Paired box protein Pax-8): 21.7 µM (active)

SMILES: O=C(C[C@H]1CC[C@@H]2[C@H](COC[C@H](O)CN2Cc2ccc(Oc3ccccc3)cc2)O1)N1CCc2ccccc2C1
AbsAC35 [12]: 121.3 µM
AbsAC35 [13]: 66.11 µM

SMILES: CN(C)CC#Cc1cccc(-c2nc(C(=O)NCc3ccc4c(c3)OCO4)cc3c2[C@H](CCO)N([S+]([O-])C(C)(C)C)C3)c1 (stereo not given in full)
AC50 [14]: 1.38 µM (active)

IC50 [15]: 77.3 µM (inactive)
SMILES: COc1ccc(C(=O)NCc2nc(C)cs2)cc1OC1CCN(C(C)C)CC1

SMILES: CCN1CCN(c2cc(C)c3cc(NC(=O)c4cc(OC)cc(OC)c4)ccc3n2)CC1
AC50 [16]: 11.2 µM (active)
AC50 [17]: 17.1 µM (active)
